Reference: US20090186832A1 (priority 2008, published 2009)
Values joined by “and” are separate entries in the source; they are usually repeats but may differ in a detail not shown here. Equal entries are not always repeated. Structures can show the parent of a compound that is named as a salt. Where two headings read alike, the source gives them in different places. Marks after values point to notes of the source that are not given here.

Columns and labels:
[1] = for Meptazinol T>50% Cmax: analyte meptazinol, oral 1 mg meptazinol free base equivalents/kg
[2] = for Simulated gastric fluid (pH 1.1): % remaining after 2 h/37° C. / Simulated intestinal fluid (pH 6.8): % remaining after 2 h/37° C.: simulated gi fluid
[3] = dog, in vivo; for Cmax (mean ng/mL ± SD) / AUC (mean ngh/mL ± SD): po
[4] = plasma meptazinol, oral 1 mg meptazinol free base/kg, group 1 dogs (G1)

## CCC1(c2cccc(OC(=O)NC(C)C(=O)NC(C)C(=O)O)c2)CCCCN(C)C1.O=C(O)C(F)(F)F (mixture of isomers) [Meptazinol ala-ala dipeptide TFA salt]
[1]; [4]
  AUC (mean ngh/mL ± SD): 11.4 ± 2.9 ngh/mL
  Cmax (mean ng/mL ± SD): 2.73 ± 1.28 ng/mL

## CCC1(c2cccc(OC(=O)NC(C)C(=O)O)c2)CCCCN(C)C1.Cl (mixture of isomers) [Meptazinol alanine carbamate HCl salt]
[1]; dog, in vivo
  Mean relative bioavailability %: 116%
[1]; dog, in vivo, po
  AUC (mean ngh/mL ± SD): 16.3 ± 3.6
  Cmax (mean ng/mL ± SD): 5.2 ± 1.59 ng/mL

## CCC1(c2cccc(OC(=O)NC(CC(=O)O)C(=O)O)c2)CCCCN(C)C1.O=C(O)C(F)(F)F (mixture of isomers) [Meptazinol apartic acid carbamate TFA salt]
[1]; dog, in vivo
  Mean relative bioavailability %: 273%
[1]; dog, in vivo, po
  AUC (mean ngh/mL ± SD), *AUC0-t: 34.8* ± 1.0
  Cmax (mean ng/mL ± SD): 2.65 ± 0.34 ng/mL

## CCC1(c2cccc(OC(=O)NC(CC(C)C)C(=O)O)c2)CCCCN(C)C1.O=C(O)C(F)(F)F (mixture of isomers) [Meptazinol leucine carbamate TFA salt]
[1]; dog, in vivo
  Mean relative bioavailability %: 70%
[1]; dog, in vivo, po
  AUC (mean ngh/mL ± SD): 9.27 ± 1.6
  Cmax (mean ng/mL ± SD): 3.32 ± 1.4 ng/mL

## CCC1(c2cccc(OC(=O)NC(Cc3c[nH]c4ccccc34)C(=O)O)c2)CCCCN(C)C1.O=C(O)C(F)(F)F (mixture of isomers) [Meptazinol tryptophan carbamate TFA salt]
[1]; dog, in vivo
  Mean relative bioavailability %: 149%
[1]; dog, in vivo, po
  AUC (mean ngh/mL ± SD), *AUC0-t: 19.1* ± 8.9
  Cmax (mean ng/mL ± SD): 8.21 ± 2.56 ng/mL

## CCC1(c2cccc(OC(=O)NC(Cc3ccc(O)cc3)C(=O)O)c2)CCCCN(C)C1.O=C(O)C(F)(F)F (mixture of isomers) [Meptazinol tyrosine carbamate TFA salt]
[1]; dog, in vivo
  Mean relative bioavailability %: 52%
[1]; dog, in vivo, po
  AUC (mean ngh/mL ± SD), *AUC0-t: 6.61* ± 0.70
  Cmax (mean ng/mL ± SD): 2.23 ± 0.16 ng/mL

## CCC1(c2cccc(OC(=O)NC(C(=O)OC)C(C)C)c2)CCCCN(C)C1.Cl (mixture of isomers) [Meptazinol valine carbamate methyl ester HCl]
[1]; dog, in vivo
  Mean relative bioavailability %: 606%
[1]; dog, in vivo, po
  AUC (mean ngh/mL ± SD): 78.1 ± 17.1
  Cmax (mean ng/mL ± SD): 44.8 ± 8.2 ng/mL

## CCC1(c2cccc(OC(=O)NCC(=O)O)c2)CCCCN(C)C1.O=C(O)C(F)(F)F (racemic) [Meptazinol glycine carbamate TFA salt]
[1]; dog, in vivo
  Mean relative bioavailability %: 79%
[1]; dog, in vivo, po
  AUC (mean ngh/mL ± SD), *AUC0-t: 10.2* ± 3.4
  Cmax (mean ng/mL ± SD): 2.51 ± 0.90 ng/mL

## COC12CCC3(CC1C(C)(O)C(C)(C)C)C1Cc4ccc(OC(=O)NC(CC(=O)O)C(=O)O)c5c4C3(CCN1CC1CC1)C2O5 (centres unmarked) [Buprenorphine-Asp-Carbamate]
[2]
  pH 10.0 buffer: % remaining after 2 h/20° C.: 85%
  Distilled water (pH 5.9): % remaining after 2h/20° C.: 100%
  Simulated gastric fluid (pH 1.1): % remaining after 2 h/37° C.: 100%
  Simulated intestinal fluid (pH 6.8): % remaining after 2 h/37° C.: 99%

## CCC(C)[C@H](NC(=O)Oc1cccc(C2(CC)CCCCN(C)C2)c1)C(=O)O (some centres unmarked) [Meptazinol isoleucine carbamate TFA salt]
[1]; [4]
  AUC (mean ngh/mL ± SD): 34.9 ± 11 ngh/mL

## CCC1(c2cccc(OC(=O)N[C@H](C(=O)N[C@@H](C)C(=O)O)C(C)C)c2)CCCCN(C)C1 (some centres unmarked) [Meptazinol val-ala dipeptide TFA salt]
[1]; [4]
  AUC (mean ngh/mL ± SD): 36.5 ± 13 ngh/mL

## CCC1(c2cccc(OC(=O)N[C@H](C(=O)NCC(=O)O)C(C)C)c2)CCCCN(C)C1 (some centres unmarked) [Meptazinol val-gly dipeptide TFA salt]
[1]; [4]
  AUC (mean ngh/mL ± SD): 39.9 ± 17 ngh/mL

## CCC1(c2cccc(OC(=O)N[C@H](C(=O)N[C@H](C(=O)O)C(C)C)C(C)C)c2)CCCCN(C)C1 (stereo partly drawn) [Meptazinol val-val dipeptide TFA salt, meptazinol-(S)-valine-(S)-valine carbamate trifluoroacetate]
[1]; [4]
  AUC (mean ngh/mL ± SD): 45.0 ± 12 ngh/mL

## CCC1(c2cccc(OC(=O)N[C@H](C(=O)O)C(C)C)c2)CCCCN(C)C1 (some centres unmarked) [Meptazinol valine carbamate HCl, 2-[3-(3-Ethyl-1-methyl-azepin-3-yl)-phenoxycarbonylamino]-3-methyl-butyric acid hydrochloride]
[1]; individual dogs 1-5, hydrochloride
  Meptazinol T>50% Cmax: 0.5 h (3×) and 1.5 h (2×)
[1]; median value
  Meptazinol T>50% Cmax: 0.5^a h
[1]; plasma meptazinol, oral 1 mg meptazinol free base/kg, group 2 dogs (G2), hydrochloride
  AUC (mean ngh/mL ± SD): 67.6 ± 9.2 ngh/mL

## CCC1(c2cccc(OC(=O)N[C@H](C(=O)O)C(C)C)c2)CCCCN(C)C1 (stereo partly drawn) [Meptazinol valine carbamate TFA salt, meptazinol-(S)-valine carbamate trifluoroacetate]
[1]; [4]
  AUC (mean ngh/mL ± SD): 67.7 ± 25 ngh/mL

## CCC1(c2cccc(OC(=O)N[C@H](C(=O)O)C(C)C)c2)CCCCN(C)C1 (some centres unmarked) [Meptazinol valine carbamate camsylate]
[1]; [4]
  AUC (mean ngh/mL ± SD): 62.4 ± 20.4 ngh/mL

## CCC1(c2cccc(OC(=O)N[C@H](C(=O)O)C(C)C)c2)CCCCN(C)C1 (some centres unmarked) [Meptazinol valine carbamate zwitterion]
[1]; plasma meptazinol, oral 1 mg meptazinol free base/kg, group 2 dogs (G2)
  AUC (mean ngh/mL ± SD): 84.9 ± 40.6 ngh/mL

## CCC1(c2cccc(OC(=O)N[C@H](C(=O)O)C(C)C)c2)CCCCN(C)C1 (some centres unmarked) [Meptazinol-Val-Carbamate]
[2]
  pH 10.0 buffer: % remaining after 2 h/20° C.: 66%

## CN1CC[C@]23c4c5ccc(O)c4O[C@H]2C(=O)CC[C@@]3(O)[C@H]1C5 [Oxymorphone HCl, reference compound]
[3]; Beagle, 0.5 mg/kg
  Cmax (mean ng/mL ± SD): 3.8 ± 0.77 ng/mL
[3]
  AUC (mean ngh/mL ± SD): 12.2 ± 1.6

## CN1CC[C@]23c4c5ccc(OC(=O)NCC(=O)O)c4O[C@H]2C(=O)CC[C@@]3(O)[C@H]1C5.O=C(O)C(F)(F)F [Oxymorphone glycine carbamate TFA]
[3]
  Mean relative bioavailability %: 554%
  AUC (mean ngh/mL ± SD): 67.9 ± 34.1
  Cmax (mean ng/mL ± SD): 21 ± 10.9 ng/mL

## CSCC[C@@H](NC(=O)Oc1ccc2c3c1OC1C(=O)CC[C@@]4(O)[C@@H](C2)N(C)CC[C@]314)C(=O)O (some centres unmarked) [Oxymorphone methionine carbamate TFA]
[3]; Beagle, 0.5 mg/kg
  Mean relative bioavailability %: 436%
  Cmax (mean ng/mL ± SD): 13.8 ± 4.6 ng/mL
[3]
  AUC (mean ngh/mL ± SD): 55.4 ± 15.2

## CN1CC[C@]23c4c5ccc(OC(=O)N[C@@H](Cc6ccccc6)C(=O)O)c4O[C@H]2C(=O)CC[C@@]3(O)[C@H]1C5.Cl [Oxymorphone phenylalanine carbamate HCl]
[3]
  Mean relative bioavailability %: 244%
  AUC (mean ngh/mL ± SD): 29.5 ± 2.2
  Cmax (mean ng/mL ± SD): 5.45 ± 1.32 ng/mL

## CN1CC[C@]23c4c5ccc(OC(=O)N[C@@H](Cc6ccc(O)cc6)C(=O)O)c4O[C@H]2C(=O)CC[C@@]3(O)[C@H]1C5.O=C(O)C(F)(F)F [Oxymorphone tyrosine carbamate TFA]
[3]
  Mean relative bioavailability %: 157%
  AUC (mean ngh/mL ± SD): 17.3 ± 3.0
  Cmax (mean ng/mL ± SD): 4.62 ± 1.12 ng/mL

## CSCC[C@@H](NC(=O)Oc1ccc2c3c1OC1C(=O)CC[C@@]4(O)[C@@H](C2)N(C)CC[C@]314)C(=O)O (some centres unmarked) [Oxymorphone-Methio-Carbamate]
[2]
  pH 10.0 buffer: % remaining after 2 h/20° C.: 8%
  Distilled water (pH 5.9): % remaining after 2h/20° C.: 100%
  Simulated gastric fluid (pH 1.1): % remaining after 2 h/37° C.: 100%
  Simulated intestinal fluid (pH 6.8): % remaining after 2 h/37° C.: 96%

## Oxymorphone isoleucine carbamate TFA
[3]
  Mean relative bioavailability %: 570%
  AUC (mean ngh/mL ± SD): 65.8 ± 32
  Cmax (mean ng/mL ± SD): 17.2 ± 9.9 ng/mL

## Oxymorphone valine carbamate TFA
[3]
  Mean relative bioavailability %: 816%
  AUC (mean ngh/mL ± SD): 51.2 ± 35
  Cmax (mean ng/mL ± SD): 14.6 ± 8.69 ng/mL
